In test [1] the target is Acetylcholinesterase (Electrophorus electricus) (UniProt O42275). Put plainly: The compound was tested in vitro for the inhibition of acetylcholinesterase (AChE) isolated from electric eel at 10e-5 M.
The target is the same in test [2]. Put plainly: The compound was tested in vitro for the inhibition of acetylcholinesterase (AChE) isolated from electric eel at 10e-6 M.
Test [3] deals with GABA-A receptor; anion channel. In words: Displacement of [3H]flunitrazepam from GABA-A benzodiazepine receptor (BZR) of rat brain membranes. The class given is cell membranes, Membrane. In general terms: Loss of bound radioactivity is the signal in a displacement assay; it reports binding, not function.
Test [4] addresses Muscarinic acetylcholine receptor. In words: The compound was tested in vitro for its binding affinity to muscarinic receptor on rat brain membrane by competitive binding assay using [3H]-QNB.
For test [5], the target named is Acetylcholinesterase (Electrophorus electricus) (UniProt O42275). In words: The compound was tested in vitro for the inhibition of acetylcholinesterase (AChE) isolated from electric eel at 10e-5 M; NA means no significant activity at 10e-3 M.
For test [6] the target is unchanged. Put plainly: The compound was tested in vitro for the inhibition of acetylcholinesterase (AChE) isolated from electric eel at 10e-6 M; NA means no significant activity at 10e-3 M.
In test [7] the target is GABA-A receptor; anion channel. In words: Displacement of [3H]flunitrazepam from GABA-A benzodiazepine receptor (BZR) of rat brain membranes (NA = no significant activity). In kind it is cell membranes, Membrane.
Test [8] deals with GABA-A receptor; anion channel. Put plainly: Displacement of [3H]flunitrazepam from GABA-A benzodiazepine receptor (BZR) of rat brain membranes (NA = no significant activity at 10e-3 M). The class given is cell membranes, Membrane.

SMILES strings stand for the structures. Calls of active or inactive are those of the source. The rule behind the calls is not given here.

Acetylcholinesterase (Electrophorus electricus), sequence (O42275 24-633 limits assumed): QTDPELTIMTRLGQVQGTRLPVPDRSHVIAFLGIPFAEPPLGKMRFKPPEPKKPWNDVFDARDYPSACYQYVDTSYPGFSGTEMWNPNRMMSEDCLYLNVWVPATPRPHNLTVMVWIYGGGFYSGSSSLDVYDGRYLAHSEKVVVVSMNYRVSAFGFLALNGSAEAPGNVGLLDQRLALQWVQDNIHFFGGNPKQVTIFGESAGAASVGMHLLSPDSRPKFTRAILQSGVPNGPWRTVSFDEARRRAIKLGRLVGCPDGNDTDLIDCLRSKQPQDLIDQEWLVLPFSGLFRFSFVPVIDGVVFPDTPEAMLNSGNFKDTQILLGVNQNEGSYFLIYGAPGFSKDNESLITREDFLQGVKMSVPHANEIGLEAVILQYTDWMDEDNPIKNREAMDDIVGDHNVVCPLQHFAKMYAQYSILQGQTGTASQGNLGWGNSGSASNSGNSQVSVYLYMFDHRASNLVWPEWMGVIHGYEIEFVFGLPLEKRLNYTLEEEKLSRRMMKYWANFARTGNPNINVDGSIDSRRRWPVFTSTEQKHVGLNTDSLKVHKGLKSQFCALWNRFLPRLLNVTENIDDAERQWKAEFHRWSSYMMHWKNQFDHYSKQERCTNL

One may read the inhibition as the percentage by which the read-out fell short of the control. One may read the Ki as the dissociation constant of the complex between target and ligand, obtained from inhibition or displacement. A low value points to higher affinity. Take `CNC(=O)c1cc2c(c[n+]1C)[nH]c1ccccc12.[I-]`: the inhibition amounted to 7.4% in test [1] and 1.3% in test [2]. The figures for the Ki in test [3] and in test [4] were 0.6 µM and 27 µM, respectively.

`COC(=O)c1cc2c(cn1)[nH]c1ccccc12` [BETA-CCM]: the inhibition result in test [5] and in test [6] was “inactive” in each case. Also, the affinity in test [7], expressed as Ki, was 0.003 µM.

Turning to `CC(C)OC(=O)c1cc2c(c[n+]1C)[nH]c1ccccc12.[I-]`, the inhibition in test [1] is 62%; in test [2], 14%. In addition, the Ki in test [3] was 4.1 µM; in test [4], 0.5 µM.

For the compound `CCCOC(=O)c1cc2c(c[n+]1C)[nH]c1ccccc12.[I-]`, the values for the inhibition in test [1] and in test [2] were 80.1% and 34.9%, respectively. The Ki in test [3] was 0.6 µM; in test [4], 1 µM.

As for `CCOC(=O)c1cc2cc[nH]c2c[n+]1C.[I-]`, the inhibition was 17% in test [1] and 4% in test [2]. Moreover, in test [8], the Ki result is on record as “Not Active”.

`CCOC(=O)c1cc2c(c[n+]1C)[nH]c1ccccc12.[I-]`: the inhibition in test [1] came to 60.9%; in test [2], 13.7%. Moreover, the inhibition constant (Ki) was found to be 3.2 µM in test [3] and 0.7 µM in test [4].

For `CCCCOC(=O)c1cc2c(c[n+]1C)[nH]c1ccccc12.[I-]`, the inhibition in test [1] amounted to 88%; in test [2] it was 46%. For the same compound, the Ki in test [3] came to 4.6 µM; in test [4], 0.5 µM.

Turning to `CN(C)C(=O)Oc1ccc[n+](C)c1`, the inhibition is 93% in test [1] and 59% in test [2].

For `C[n+]1ccc2c(c1)[nH]c1ccccc12` [NORMELINONINE F], the inhibition in test [1] was found to be 41.2%; in test [2], 7.6%. Also, the Ki result in test [8] was “Not Active”.

For the compound `COC(=O)c1cc2c(c[n+]1C)[nH]c1ccccc12`, the inhibition in test [1] turned out to be 43.1%; in test [2], 7.2%. Besides, the Ki in test [3] is 1.4 µM; in test [4], 3.1 µM.

The record behind these values is ChEMBL document CHEMBL1127171, “N-2 methylated quaternary derivatives of -carboline-3-carboxylates inhibit acetylcholinesterase in vitro” (Bioorg Med Chem Lett, 1993).
